Laboratory results as given in US10947566B1, “Hydrogen peroxide production method, system, and apparatus” (SOLUGEN, INC., priority 2015, dated 2021).

Test system: NQO1
Experiment: NQO1/NADH/NAC cell-free reaction in 96-well plate: oxygen consumption rate (Seahorse XF Analyzer) and hydrogen peroxide produced (absorption at 240 nm)
Type: biochemical
Source text: Referring now to FIG. 1C-1D, data graphs are provided illustrating the results of one sample experiment for hydrogen peroxide produced using the one or more embodiments of the present disclosure described herein. In particular, FIG. 1C illustrates the generation of superoxide radicals by using the Oxygen Consumption Rate (OCR) with respect to time as a proxy for one experiment. Here, the experiment comprised using a Seahorse Bioscience XF Analyzer® instrument to measure the OCR with respect to time. In addition, a 96-well plate was used wherein each well was filled with 140 microliters of 100 units of NQO1, NADH, 4 micromolar NAC (β-Lacaphone), 50 millimolar Tris-HCl at pH 7 wherein the solutions were kept at atmospheric temperature. […] Further, at the conclusion of this 7-hour period, approximately […] hydrogen peroxide was produced and measured. […] Specifically, referring to FIG. 1D, the hydrogen peroxide concentration was measured using a spectrophotometric absorption of 240 nm corresponding to hydrogen peroxide.

For `CC1(C)CCC2=C(O1)c1ccccc1C(=O)C2=O` [β-lapachone], the “resulting hydrogen peroxide concentration” value (7-hour run cycle, spectrophotometric absorption 240 nm) was greater than 30%, the “Oxygen Consumption Rate (OCR) with respect to time, proxy for generation of superoxide radicals” value (100 units NQO1, NADH, 4 micromolar NAC, 50 millimolar Tris-HCl pH 7, atmospheric temperature, 7-hour period, measured every 2 minutes, versus DMSO vehicle control wells) was “dramatically increased and sustained OCR” and the “hydrogen peroxide produced and measured” value (at conclusion of 7-hour period, 100 units NQO1, NADH, 4 micromolar NAC, 50 millimolar Tris-HCl pH 7, spectrophotometric absorption 240 nm) was “approximately 12 molar”.
